Experimental data: publication PMC7767221, “Conjugates Containing Two and Three Trithiolato-Bridged Dinuclear Ruthenium(II)-Arene Units as In Vitro Antiparasitic and Anticancer Agents” (Pharmaceuticals, 2020)
Read-outs that look alike come from different tables or passages of the source.

What was measured:
[1] = test system: T. gondii β-gal tachyzoites; settings: 72 h, tachyzoites grown in HFF; previously reported; cited from earlier work
[2] = test system: (D-)A24cisPt8.0 cells; parameters: method as in PMID 32485798; settings: cited from earlier work
[3] = test system: (D-)A24cisPt8.0 cells; experiment: Growth inhibition, 72 h, cell density by Casy cell analyzer; format: cell-based, human; settings: 72 h exposure, mean ± SD
Excerpt: (§1) Human ovarian carcinoma cells A2780 and the cisPt resistant variant A2780cisR were purchased from the European Center of Cell Cultures (ECACC, Salisbury, UK). The HEK-293 cell line was kindly provided by Prof. Mühlemann, University of Bern. The A24 cells and its subline (D-)A24cisPt8.0 were described previously. The cancer cells A24 and (D-)A24cisPt8.0 [105] (human lung adenocarcinoma cells wild type A24 and cisPt resistant (D-)A24cisPt8.0 subline), A2780 and A2780cisR (human ovarian cisplatin sensitive and resistant cancer cells), together with HEK293 (human embryonic kidney) cells as model for normal cells, were included in the study for the evaluation of the ruthenium compounds’ selectivity and cross-resistance with cisplatin. The A24 sublines, A2780 and A2780cisR were cultured in RPMI 1640 medium without riboflavin, phenol red and antibiotics, buffered with 4.5 mM HEPES (BioConcept, Allschwil, Switzerland), supplemented with 10% (v/v) fetal bovine serum (FBS) (Thermo Scientific, Weltham, MA, USA) as the only source of flavins, and with 13.5 mM NaHCO3. In order to retain cisplatin resistance in the A2780cisR cell line, 1 µM cisplatin was added to the medium every 2–3 passages. HEK293 cells were cultured in DMEM/F12 medium, supplemented with 10% (v/v) FBS. At subcultivation, cell monolayers were rinsed with PBS and exposed for 3 min to StemPro Accutase Cell Dissociation Reagent (Thermo Scientific, Weltham, MA, USA) at 36.5 °C. Detached cells were resuspended in culture medium. Cell densities were determined using Moxi flow cytometer according to manufacturer instructions (Orflo Technologies, Ketchum, ID, USA). Experiments and subcultivations were performed using light with wavelengths above 520 nm to prevent photochemical artifacts. Cytostatic drug response was quantified as previously reported. Briefly, HEK293, A24, A2780, A2780cisR, and (D-)A24cisPt8.0 single cell suspensions were freshly prepared from confluent cell layers using Accutase and diluted in culture medium to a cell density of 2 × 10^4 or 8 × 10^4 cells/mL (D-)A24cisPt8.0. 150 µl of this suspension was combined with 150 µl of twice the cisPt or Ru-compound concentration in a 96-well microtiter plate (TPP, Trasadingen, Switzerland). Test plates were incubated under standard conditions for 72 h. Cell densities were determined in a Casy I cell analyzer using Casystat software (OLS OMNI Life Science, Bremen, Germany). Drug concentrations leading to 50% growth inhibition compared to controls were calculated using GraphPad Software (La Jolla, CA, USA). Each experiment was done in triplicates.

[4] = test system: A2780cisR cells; experiment: as above; format: cell-based, human; settings: 72 h exposure, mean ± SD
Excerpt: as §1

[5] = test system: A2780 cells; experiment: as above; format: cell-based, human; settings: 72 h exposure, mean ± SD
Excerpt: as §1

[6] = test system: A24 cells; experiment: as above; format: cell-based, human; settings: 72 h exposure, mean ± SD
Excerpt: as §1

[7] = test system: HEK293 cells; experiment: as above; format: cell-based, human; settings: 72 h exposure, mean ± SD
Excerpt: as §1

[8] = test system: T. gondii β-gal tachyzoites; experiment: T. gondii β-gal tachyzoite proliferation in HFF (β-galactosidase / CPRG assay); format: cell-based, Toxoplasma gondii; settings: 72 h, % of DMSO control
Excerpt: (§2) If not otherwise stated, all tissue culture media were purchased from Gibco-BRL, and biochemical agents purchased from Sigma-Aldrich. HFF (SCRC-1041.1) were purchased from ATCC, and were maintained in DMEM medium containing 10% fetal calf serum (FCS, Gibco-BRL, Waltham, MA, USA), and antibiotics as described. Transgenic T. gondii β-gal (expressing the β-galactosidase gene from Escherichia coli) were kindly provided by Prof. David Sibley (Washington University, St. Louis, MO, USA) and were maintained in HFF as host cells, and were isolated as described before.
Compounds were prepared as 1 mM stock solutions in DMSO (dimethyl sulfoxide, Sigma, St. Louis, MO, USA). For activity assays, HFF monolayers were cultured in 96 well plates by seeding 5 × 10^3 HFF per well and allowing them to grow to confluence in phenol-red free culture medium at 37 °C/5% CO2. For infection, T. gondii β-gal tachyzoites were separated from their host cells as described, parasites were isolated and HFF monolayers were infected with freshly isolated tachyzoites (1 × 10^3 per well), with compounds solutions added concomitantly during infection.
For the primary screening, T. gondii β-gal infected HFF were exposed to 0.1 and 1µM of each compound for a period of 72 h, or the corresponding concentration of DMSO (0.01% and 0.1%, respectively) as control. For the determination of IC50 values against T. gondii β-gal, compounds were added at 8 concentrations: 0.007, 0.01, 0.03, 0.06, 0.12, 0.25, 0.5, and 1 µM. After 72 h of culture at 37 °C/5% CO2, the medium was aspirated, and cells were permeabilized by adding 90 µL PBS (phosphate buffered saline) containing 0.05% Triton X-100. After addition of 10 µL 5 mM chlorophenol red-β-D-galactopyranoside (CPRG; Roche Diagnostics, Rotkreuz, Switzerland) dissolved in PBS, the absorption shift was measured at 570 nm wavelength at various time points using an EnSpire® multimode plate reader (PerkinElmer, Inc, Waltham, MA, USA). For the primary screening at 0.1 and 1 μM, the activity, measured as the release of chlorophenol red over time, was calculated as percentage from the respective DMSO control, which represented 100% of T. gondii β-gal growth. For the IC50 assays, the activity measured as the release of chlorophenol red over time was proportional to the number of live parasites down to 50 per well as determined in pilot assays. IC50 values were calculated after the logit-log-transformation of relative growth and subsequent regression analysis. All calculations were performed using the corresponding software tool contained in the Excel software package (Microsoft, Redmond, WA, USA).

[9] = test system: HFF (human foreskin fibroblasts); experiment: Cytotoxicity in uninfected confluent HFF host cells (AlamarBlue assay); format: cell-based; settings: 72 h, non-infected HFF
Excerpt: as §2
Cytotoxicity assays using uninfected confluent HFF host cells were performed as previously described by AlamarBlue assay. In brief, confluent HFF monolayers in 96 well-plates were exposed to 0.1, 1 and 2.5 µM of each compound. Non-treated HFF as well as DMSO controls (0.01%, 0.1% and 0.25%) were included. After 72 h of incubation at 37 °C/5% CO2, the medium was removed, and plates were washed once with PBS. Resazurin stock solution was diluted 1:200 in PBS and 200 µL were added to each well. Plates were read at excitation wavelength 530 nm and emission wavelength […] at the EnSpire® multimode plate reader (PerkinElmer, Inc). Fluorescence was measured at different timepoints. Relative fluorescence units were calculated from timepoints with linear increase.

[10] = test system: A2780 cells; settings: read-out: IC50 against A2780 cells; cited from earlier work
[11] = test system: Neospora caninum; parameters: method as in PMID 28652238, PMID 30620038, PMID 31469986; settings: read-out: N. caninum proliferation IC50; cited from earlier work
[12] = test system: Neospora caninum; parameters: method as in PMID 28652238, PMID 30620038, PMID 31469986; settings: applied orally, neosporosis mouse model; cited from earlier work
[13] = test system: T. gondii; parameters: method as in PMID 28652238; settings: cited from earlier work; for parasiticidal action on T. gondii: applied at 250 nM; for IC50: read-out: T. gondii proliferation IC50
[14] = test system: HFF host cells; settings: cited from earlier work
[15] = test system: A2780cisR cells; parameters: method as in PMID 27561129, doi:10.1016/j.jorganchem.2014.10.050, PMID 27187018; settings: read-out: IC50 against A2780cisR cells; cited from earlier work

Compound	IC50 [3] [µM]	IC50 [4] [µM]	IC50 [5] [µM]	IC50 [6] [µM]	IC50 [7] [µM]	IC50 [11] [nM]	parasite load in the central nervous system [12]	parasiticidal action on T. gondii [13]	further results
CCc1nc(N)nc(N)c1-c1ccc(Cl)cc1 [Pyrimethamine, pyrimethamine]									IC50 [1]: 326 nM
N.N.[Cl][Pt][Cl] [cisPt, cis-diamminedichloroplatinum(II)]	8.89 ± 0.446	4.08 ± 0.21	0.21 ± 0.119	0.333 ± 0.075	0.515 ± 0.064				resistance to cisplatin of (D-)A24cisPt8.0 subline compared to the A24 cells [2]: approximately 30 fold
[(η6-p-MeC6H4Pri)2Ru2(μ2-SCH2C6H4-p-But)2(μ2-SC6H4-p-NH)-(CO)-m-C6H4-(CO)-(p-NH-C6H4-μ2S)Ru2(μ2-SCH2C6H4-p-But)2(η6-p-MeC6H4Pri)2]Cl2 [Compound 17]	0.09 ± 0.003	0.644 ± 0.08	0.416 ± 0.106	0.24 ± 0.016	0.447 ± 0.043				T. gondii β-gal growth (%) 0.1 µM [8]: 117 ± 7%; T. gondii β-gal growth (%) 1 µM [8]: 109 ± 6%; HFF viability (%) 0.1 µM [9]: 102 ± 2%; HFF viability (%) 1 µM [9]: 106 ± 7%
[(η6-p-MeC6H4Pri)2Ru2(μ2-SCH2C6H4-p-But)2(μ2-SC6H4-p-O)-(CO)(CH2)3(CO)-(p-O-C6H4-μ2S)Ru2(μ2-SCH2C6H4-p-But)2(η6-p-MeC6H4Pri)2]Cl2 [Compound 7]	0.053 ± 0.007	0.072 ± 0.008	0.097 ± 0.041	0.033 ± 0.002	0.085 ± 0.026				T. gondii β-gal growth (%) 0.1 µM [8]: 68 ± 2%; T. gondii β-gal growth (%) 1 µM [8]: 0 ± 6%; HFF viability (%) 0.1 µM [9]: 76 ± 2%; HFF viability (%) 1 µM [9]: 25 ± 4%
[(η^6-p-MeC6H4Pr^i)2Ru2(µ2-S-p-C6H4R)3]^+ with R = p-Bu^t						5	did not reduce parasite load in the central nervous system	did not act in a parasiticidal manner	IC50 [10]: 30 nM; IC50 [13]: 62 nM; dosage that did not affect HFF host cells [14]: ≥ 200 µM; IC50 [15]: 30 nM
[(η^6-p-MeC6H4Pr^i)2Ru2(µ2-S-p-C6H4R)3]^+ with R = p-Me [A]						15	did not reduce parasite load in the central nervous system	did not act in a parasiticidal manner	IC50 [13]: 34 nM; dosage that did not affect HFF host cells [14]: ≥ 200 µM
[(η^6-p-MeC6H4Pr^i)2Ru2(µ2-SR^1)(µ2-SR^2)2]^+ with R^1 = CH2-C6H4-p-Bu^t, R^2 = C6H4-p-OH, X = Cl^- [D]						1	did not reduce parasite load in the central nervous system	did not act in a parasiticidal manner	
